Results reported in US20180105492A1, “COMPOUNDS DERIVED FROM 3-ALKYLAMINE-1H-INDOLYL ACRYLATE AND THEIR USE IN THE TREATMENT OF NEURODEGENERATIVE DISEASES” (FUNDACION PARA LA INVESTIGACION BIOMEDICA DEL HOSPITAL …, priority 2014, published 2018).

Assays:
Type in all cases: cell-based
SH-SY5Y cells [1] = assay: Neuroprotection against rotenone/oligomycin A, pre-incubation model, MTT; details: Homo sapiens, compound 1 μM pre-incubation 24 h, then Rot/Olig (30/10 μM); for viability at 1 µM: read-out: % Survival
Procedure: (§1) SH-SY5Y cells [ECACC 94030304], in 5 to 16 passage after defreezing were maintained in Eagle media modified by Dulbecco (DMEM) containing 15 non-essential amino acids and supplemented with 10% fetal bovine serum, 1 mM glutamine, 50 units/mL penicillin/streptomycin (obtained from GIBCO, Madrid, Spain). Cells were seeded in flasks containing supplemented media and were maintained in an incubator at 37° C. and 5% CO2. 1:4 passes were performed twice per week. For the experiments, cells were seeded in 24 well-plates at a density of 2×10^5 cells/well, or in 96 well-plates at a density of 8×10^4 cells/well. For cytotoxicity experiments, cells were treated with the compounds before confluence with DMEM media supplemented with fetal bovine serum 1%.
(§2) In order to assess cellular viability, we measured the metabolic reduction of 3-(4,5-Dimethylthiazol-2-yl)-2,5 diphenyltetrazolium bromide (MTT). MTT is an indirect assay to measure cellular viability. It is a colorimetric method based on the reduction of 3-(4,5-Dimethylthiazol-2-yl)-2,5 diphenyltetrazolium. This process is performed by the mitochondrial enzyme succinate-dehydrogenase present in metabolic active cells. Thus, the water-soluble yellow MTT (tetrazolium salt) is transformed into a insoluble purple compound (formazan). Quantity of living cells is directly proportional to the quantity of formazan (Mosmann, 1983, J Immunol Methods, 65: 55-63). […] Therefore, with this assay we can measure cellular surviving and proliferation and also, we can determine the cytotoxicity of potential neuroprotective compounds. In order to assess cellular viability in SH-SY5Y cell line, we added 30 μl/well of MTT (5 mg/mL) and after 2 h, medium was carefully removed to avoid losing the formazan and was diluted in 300 μL of DMSO. Afterwards, samples were transferred to a 96 well-plate and the absorbance was measured at 570 nm using a absorbance/fluorescence reader FluoStar optima®. Every MTT assay was performed in triplicates. Absorbance values obtained with the toxic alone were subtracted to the absorbance values obtained in basal conditions (without treatment). That result was considered as the 100% of cell death and the values obtained with the compounds in the presence of the toxic stimulus were normalized as percentages of that value. For determining the surviving percentage, those percentages of cell death were subtracted to 100.
(§3) Neuroprotection elicited by the compounds of the invention 1-16: The activation of Nrf2-ARE pathway by different compounds exerts neuroprotective effects against toxic models based on oxidative stress via the expression of cytoprotective genes. […] We evaluated the neuroprotective potential of the compounds using the human neuroblastoma cell line using the following cytotoxicity models: 1) oxidative stress induced by rotenone+oligomycin, both blockers of the electron transport chain as previously described (Halliwell, 1992, J Neurochem, 59: 1609-23, Newhouse y col., 2004, Toxicol Sci, 79: 137-46), and 2) cytotoxicity induced by the electrophilic compound Menadione. This compound produces oxidative stress after being metabolized by microsomal enzymes in the cell which produces hydroxyl radical and oxygen reactive species. As a consequence, there is a depolarization of mitochondrial membrane generating a release of apoptotic factors such as cytochrome c, and activating the caspase cascade (Loor y col., 2010, Free Radic Biol Med, 49: 1925-36, Chuang y col., 2002, Cancer Res, 62: 6246-54). Caspase 3 activation can produce the lysis of proteins and induce DNA fragmentation, leading to cell death (Gerasimenko y col., 2002, J Cell Sci, 115: 485-97).
For this study we propose a protocol in which the cells are pre-incubated with each of the derivatives at 1 μM for 24 h. After the pre-incubation period, the medium was removed and replaced by culture medium with the rotenone/oligomycin-A (30 μM and 10 μM, respectively) toxic mixture. […]

SH-SY5Y cells [2] = assay: Neuroprotection against oxidative stress induced by menadione, pre- and co-incubation, MTT; details: Homo sapiens, 24 h, compound 1 μM pre- and co-incubation, Menadione (8 mM); for viability at 1 µM: read-out: % Survival
Procedure: as §1, §2, §3
To further confirm the neuroprotective capacity in another model of oxidative stress, menadione was selected as toxic stimulus. […]

[3] = system: Nrf2 transcription factor (Nrf2-ARE); assay: Nrf2-ARE induction, luciferase activity in AREc32 (MCF7 cells stably transfected with ARE-LUC); details: Homo sapiens, 24 h, basal = 1, read-out: Relative Luciferase activity (response versus basal)
Procedure: For the study of Nrf2 transcription factor, the cellular line AREC32 was used, which is characterized for being stably transfected with the reporter gene of Luciferase linked to the ARE sequence. In the presence electrophilic compounds or oxidative stress, Nrf2 factor binds to ARE sequences, activating luciferase expression and producing a proportional quantity of luciferase. The AREc32 cells were cultured in DMEM media with glutamax, supplemented with 10% fetal bovine serum (FBS), 1% penicillin-streptomycin and 1.6% geneticine (G418) (obtained from GIBCO, Madrid, Spain). Cells were cultured in 75 cm flasks with 11 mL of specific media, incubated at 37° C. and 5% of CO2. Cells were passed every 4-6 days (1:4), whenever the confluence reached 80%. For the experiments, cells were cultured in transparent surface 96 well plates at a density of […] with 100 μL/well. After 24 h in culture, cells were treated with the compounds at different concentrations (1, 10, 30 and 60 μM) during 24 h at 37° C. and 5% CO2. In every experiment it was also included a basal variable, a variable with 10 μM tert-butyl hydroquinone (TBHQ) (positive control) and the variables of the study in a final volume of 100 μL. After an incubation of 24 h with the compounds, luciferase activity was measured by bioluminescence using the commercial kit “Luciferase assay system” (Promega E1500). For that, treatments were removed and cells were washed with 100 μL of PBS 0.1 M. After washing, 20 μL of “lysis buffer” reactive was added to each well. 10 minutes later, luminescence was measured using the multi-well reader FluoStar optima (BMG labtech).
Luminescence was measured in arbitrary units and is directly proportional to luciferase quantity in the wells, which is also directly proportional to Nrf2 transcription factor induction by the specific compound at the established concentration. Measurements were made in duplicate and values were normalized to the basal luminescence value, considered as 1.
The results of Nrf2 induction obtained for the compounds 1 to 16 are shown in Table 1 and are expressed as induction, considering 1 the non-treated cells.

| Compound | percent protection against toxin-induced cell death at 1 µM (SH-SY5Y cells [1]) | viability at 1 µM (SH-SY5Y cells [1]) | % protection against menadione toxicity at 1 µM (SH-SY5Y cells [2]) | viability at 1 µM (SH-SY5Y cells [2]) | fold induction at 10 µM [3] | fold induction at 30 µM [3] | fold induction at 60 µM [3] |
| --- | --- | --- | --- | --- | --- | --- | --- |
| CC(=O)NCCc1c[nH]c2ccc(OC(=O)/C=C/c3ccc(C)cc3)cc12 [Compound 3, 3-(2-acetamidoethyl)-1H-indol-5-yl (E)-3-(4-methylphenyl)acrylate] | 20.5% | 67 ± 3.21% | 25% | 71.4 ± 2.43% | 1.26 ± 0.1 | 2.03 ± 0.1 | 3.26 ± 0.3 |
| C/C=C/C(=O)Oc1ccc2[nH]cc(CCNC(C)=O)c2c1 [Compound 1, 3-(2-acetamidoethyl)-1H-indol-5-yl (E)-2-butenoate] | 28.5% | 70.4 ± 4.03% | 63.3% | 87.7 ± 1.74% | 2.34 ± 0.2 | 12.1 ± 1.3 | 30.7 ± 1.7 |
| CC(=O)NCCc1c[nH]c2ccc(OC(=O)/C=C/c3cccc(C(F)(F)F)c3)cc12 [Compound 14, 3-(2-acetamidoethyl)-1H-indol-5-yl (E)-3-(3-(trifluoromethyl)phenyl)acrylate] | 34.9% | 72.5 ± 2.92% | 44.8% | 78.5 ± 3.03% | 1.34 ± 0.2 | 1.64 ± 0.2 | 2.13 ± 0.2 |
| COc1ccccc1/C=C/C(=O)Oc1ccc2[nH]cc(CCNC(C)=O)c2c1 [Compound 4, 3-(2-acetamidoethyl)-1H-indol-5-yl (E)-3-(2-methoxyphenyl)acrylate] | 19% | 67.1 ± 2.61% | 67.1% | 90.5 ± 1.97% | 1.67 ± 0.1 | 2.01 ± 0.1 | 2.53 ± 0.1 |
